Counter-ions that a name gives are not always drawn. Like-named read-outs stand apart in the source and are kept apart here.
What was measured:
[1] = system: type I collagen α1 chain mRNA in WI-38 cells; assay: Type I collagen α1 chain mRNA expression inhibition test; assay type: cell-based; settings: Homo sapiens, read-out: Inhibition rate (%) at 10 μmol/L
Procedure: Human embryonic lung fibroblast cell line WI-38 cells were suspended in a Dulbecco's modified Eagle's medium containing 10% fetal calf serum, and 7.5×10^4 cells were inoculated on a 12-well plate and cultured for 3 days, or 1.5×10^5 cells were inoculated and cultured for 2 days. After the growth of the cells to a subconfluent state, the culture medium was changed to a Dulbecco's modified Eagle's medium containing 0.4% fetal calf serum and 50 μg/mL ascorbic acid, and the cells were further cultured for 24 hours. Then, a test compound was added thereto, and, one hour later, TGF-β1 was added at a final concentration of 1 ng/mL. Twenty-four hours after the addition, the total RNA was extracted from the cells using an RNA extraction kit (SV Total RNA Isolation System, Promega), and cDNA was synthesized using a reverse transcriptase (ReverTra Ace, TOYOBO). The expression level of the type I collagen al chain mRNA was analyzed with a real-time PCR instrument (ABI PRISM 7700 Sequence Detection System, Applied Biosystems) by a real-time PCR method using a premix reagent of real-time PCR (SYBR Premix Ex Taq or SYBR Premix Ex Taq II (Perfect Real Time), TaKaRa). A PCR reaction was conducted with diluted cDNA as a template, using primers specific for a type I collagen α1 chain gene or a GAPDH gene as an internal standard, and the reaction product was measured. The PCR reaction was conducted by incubation at 95° C. for 10 seconds and 45 cycles of denaturation at 95° C. for 5 seconds and annealing/extension at 60° C. for 30 seconds. The expression level of the type I collagen α1 chain mRNA was corrected with GAPDH and was expressed as a relative value when the expression level obtained in the absence of the test compound was defined as 100%.

[2] = system: bleomycin-induced lung fibrosis (lung collagen amount); assay: Mouse bleomycin-induced lung fibrosis; assay type: in vivo, mice C57BL/6N; settings: po, 672 h, read-out: lung collagen amount low compared with that of the control group
Procedure: The test was conducted using 8- to 10.5-week-old male mice C57BL/6N (Charles River Laboratories Japan, Inc.). Bleomycin (Nippon Kayaku Co., Ltd.) was dissolved in physiological saline in a concentration of 1.0 or 1.5 mg/mL, and 2 μL/g thereof was intranasally administered to each mouse to evoke lung fibrosis. A test compound was dissolved or suspended in a 10% aqueous solution of polyoxyethylene castor oil (trade name: Cremophor EL) or in water and orally administered in an amount of 10 mg/kg twice a day from the 14th to the 28th day from the evocation. In a control group, a 10% aqueous solution of polyoxyethylene castor oil or water was administered in the same manner. The lung was extracted from each mouse on the 28th day from the evocation, and collagen was quantitatively measured. The extracted lung was homogenized in a 0.5 mol/L aqueous solution of acetic acid containing a protease inhibitor cocktail (Complete, EDTA-free, Roche Diagnostics) in an amount of one tablet/50 mL, and water-soluble collagen was extracted in the presence of 10 mg/mL pepsin (Sigma) overnight. The amount of collagen was measured using a kit (Sircol Soluble Collagen assay kit, Biocolor).
The inhibition rate was determined by the following expression: Inhibition rate (%)=[1−(lung collagen amount in test compound administration group)/(lung collagen amount in control group)]×100

CYP2C9 = biological target: T1, CYP2C9 (Homo sapiens, UniProt P11712); assay: Hepatic drug-metabolizing enzyme inhibitory activity in humans (CYP2C9); assay type: in vitro ADME; settings: pooled human liver microsome, tolbutamide 200 μmol/L, 37° C., 30 minutes; 80a as free base; read-out: IC50 (CYP2C9, tolbutamide metabolite)
T1 construct: Pooled human liver microsome was used, and tolbutamide was used as a substrate; from tissue; host or cells: pooled human liver microsomes
Procedure: As test compounds, the compounds of Examples 80a, 83a, 108a, 117a, 123a, 128a, 139a, 142a, and 143a were used. Note that the compound of Example 80a was used in the form of free base.
Pooled human liver microsome was used, and tolbutamide was used as a substrate. The reaction was performed in a phosphate buffer (100 mmol/L, pH 7.4), and the final concentrations in the reaction system were adjusted to 0.5 mg/mL of human liver microsome protein, 200 μmol/L of the substrate, 1.55 mmol/L of oxidized nicotinamide adenine dinucleotide phosphate (NADP+), 3.3 mmol/L of glucose-6-phosphate, 3.3 mmol/L of magnesium chloride, and 0.4 Units/mL of glucose-6-phosphate dehydrogenase (G6PDH). The final concentration of each compound in the reaction solution was adjusted to 0.08 to 50 μg/mL. These reaction solutions were each subjected to reaction at 37° C. for 30 minutes. The reaction was terminated with an equal amount of acetonitrile. After centrifugation, the concentration of a tolbutamide metabolite in the supernatant was quantitatively measured by LC-MS/MS. The inhibitory activity was determined as IC50. As a positive control, sulfaphenazole was used.

[3] = 10 μmol/L test compound, WI-38 cells, TGF-β1 1 ng/mL, 24 hours, Table 4a
[4] = orally 10 mg/kg twice a day, 14th to 28th day, lung on 28th day, 23a, 1b, 7c as sodium salts, 122a, 143a as hydrochloric acid salts

T1 sequence (P11712 whole entry): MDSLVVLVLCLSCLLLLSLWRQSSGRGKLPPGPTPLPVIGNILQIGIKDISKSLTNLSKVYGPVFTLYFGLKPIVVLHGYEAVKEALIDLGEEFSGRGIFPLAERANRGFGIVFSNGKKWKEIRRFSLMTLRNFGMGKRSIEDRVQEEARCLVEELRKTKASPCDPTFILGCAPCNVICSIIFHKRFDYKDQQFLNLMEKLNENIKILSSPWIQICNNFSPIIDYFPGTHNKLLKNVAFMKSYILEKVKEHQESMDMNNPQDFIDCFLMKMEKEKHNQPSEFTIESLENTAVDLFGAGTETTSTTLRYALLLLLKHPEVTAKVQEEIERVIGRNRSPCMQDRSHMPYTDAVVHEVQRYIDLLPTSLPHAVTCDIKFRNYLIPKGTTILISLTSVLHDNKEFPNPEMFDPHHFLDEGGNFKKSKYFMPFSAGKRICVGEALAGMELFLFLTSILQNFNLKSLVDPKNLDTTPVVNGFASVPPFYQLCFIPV

SMILES | inhibition at 10 µM [1, 3] | inhibition in vivo at 10 mg/kg [2, 4] | IC50 (CYP2C9) | inhibition at 10 µM ([1]; WI-38, 24 h) | inhibition in vivo at 10 mg/kg [2]
O=C(Nc1cc(-c2ccccc2)ccc1C(=O)O)c1cc(-c2cccnc2)ccc1O [Example 23a, 2-(2-hydroxy-5-(pyridin-3-yl)benzamido)-4-phenylbenzoic acid] | 91% | ≥ 30% |  |  | 
CCN1CCN(CCOc2ccc(O)c(C(=O)Nc3cc(-c4ccccc4)ccc3C(=O)O)c2)CC1 [Example 143a, 2-(5-(2-(4-ethylpiperazin-1-yl)ethoxy)-2-hydroxybenzamido)-4-phenylbenzoic acid dimethanesulfonate] | 89% | ≥ 30% | > 102 µM |  | 
O=C(Nc1cc(-c2ccoc2)ccc1C(=O)O)c1cncc(-c2ccccc2)c1 [57b, Sodium 4-(furan-3-yl)-2-(5-phenylpyridine-3-carboxamido)benzoate] |  |  |  | 84% | ≥ 30%
CN1CCN(CCOc2ccc(O)c(C(=O)Nc3cc(-c4ccccc4)ccc3C(=O)O)c2)CC1 [Example 142a, 2-(2-hydroxy-5-(2-(4-methylpiperazin-1-yl)ethoxy)benzamido)-4-phenylbenzoic acid dimethanesulfonate] | 90% |  | > 105 µM |  | 
CN(C)C1CCN(Cc2ccc(O)c(C(=O)Nc3cc(-c4ccccc4)ccc3C(=O)O)c2)CC1 [Example 128a, 2-(5-((4-(Dimethylamino)piperidin-1-yl)methyl)-2-hydroxybenzamido)-4-phenylbenzoic acid dimethanesulfonate] |  |  | > 106 µM |  | 
CN1CCC(Oc2ccc(O)c(C(=O)Nc3cc(-c4ccccc4)ccc3C(=O)O)c2)CC1 [Example 108a, 2-(2-hydroxy-5-((1-methylpiperidin-4-yl)oxy)benzamido)-4-phenylbenzoic acid hydrochloride] | 94% |  | > 112 µM |  | ≥ 30%
CN1CCN(CCc2ccc(O)c(C(=O)Nc3cc(-c4ccccc4)ccc3C(=O)O)c2)CC1 [Example 117a, 2-(2-hydroxy-5-(2-(4-methylpiperazin-1-yl)ethyl)benzamido)-4-phenylbenzoic acid dimethanesulfonate] | 90% |  | > 109 µM |  | 
O=C(Nc1cc(-c2ccccc2)ccc1C(=O)O)c1cc(N2CCOCC2)ccc1O [Example 83a, 2-(2-Hydroxy-5-(morpholin-4-yl)benzamido)-4-phenylbenzoic acid hydrochloride] | 88% | ≥ 30% | > 110 µM |  | 
CCN1CCN(Cc2ccc(O)c(C(=O)Nc3cc(-c4ccccc4)ccc3C(=O)O)c2)CC1 [Example 123a, 2-(5-((4-Ethylpiperazin-1-yl)methyl)-2-hydroxybenzamido)-4-phenylbenzoic acid dimethanesulfonate] |  |  | > 76.7 µM |  | 
Cc1cccc(-c2ccc(C(=O)O)c(NC(=O)c3cc(N4CCCCC4)ccc3O)c2)c1 [Example 149a, 2-(2-Hydroxy-5-(piperidin-1-yl)benzamido)-4-(3-methylphenyl)benzoic acid] | 97% |  |  |  | 
O=C(Nc1cc(-c2ccccc2)ccc1C(=O)O)c1ccc(N2CCCCC2)cc1O [Example 100a, 2-(2-hydroxy-4-(piperidin-1-yl)benzamido)-4-phenylbenzoic acid] | 99% |  |  |  | 
Nc1cccc(-c2ccc(O)c(C(=O)Nc3cc(-c4ccccc4)ccc3C(=O)O)c2)n1 [Example 73a, 2-(5-(6-aminopyridin-2-yl)-2-hydroxybenzamido)-4-phenylbenzoic acid] | 96% |  |  |  | 

Reference: US8492582B2, “N-acyl anthranilic acid derivative or salt thereof” (Toyama Chemical Co., Ltd., priority 2009, dated 2013)
